# Data: patent US10517889B2, “Modulators of SMAD7 expression” (Ionis Pharmaceuticals, Inc., priority 2017, dated 2019)
# Strand notation (5' to 3'): a small letter for the sugar, then the base; units joined by * are phosphorothioate-linked, units joined directly phosphodiester-linked; [ ] holds rarer units or linkages, { } end groups; capitals alone tell only the bases. e = 2'-O-(2-methoxyethyl) (MOE); [5mC] = 5-methylcytosine; d = 2'-deoxy (DNA)
# System: human SMAD7 mRNA
# Assay: Antisense inhibition of human SMAD7 mRNA expression in Hep3B cells by 5-10-5 MOE gapmers, single concentration, electroporation, RT-PCR (Example 1, Study 1 and 2)
# Assay type: cell-based
# Procedure: Antisense oligonucleotides were designed to target human SMAD7 mRNA and were tested for their effects on SMAD7 mRNA expression in vitro. Cultured Hep3B cells at a density of 20,000 cells per well were transfected using electroporation with antisense oligonucleotide ION 483663 (a 5-10-5 MOE gapmer), the sequence of which overlaps with ION 28453 (a 4-10-4 MOE gapmer) was included in these assays for comparison. ION 28453 has been previously disclosed in U.S. Pat. No. 6,159,697). After a treatment period of approximately 24 hours, RNA was isolated from the cells and SMAD7 mRNA levels were measured by quantitative real-time PCR. Primer probe set RTS5062 (forward sequence […], designated herein as SEQ ID NO: 11; reverse sequence […], designated herein as SEQ ID NO: 12; probe sequence […], designated herein as SEQ ID NO: 13) was used to measure human SMAD7 mRNA levels. SMAD7 mRNA levels were adjusted according to total RNA content, as measured by RIBOGREEN®. Results are presented as percent inhibition of SMAD7 mRNA expression, relative to untreated control cells.
# The newly designed chimeric antisense oligonucleotides in the Tables below were designed as 5-10-5 MOE gapmers. The gapmers are 20 nucleosides in length, wherein the central gap segment comprises of ten 2′-deoxynucleosides and is flanked by wing segments on the 5′ direction and the 3′ direction comprising five nucleosides each. Each nucleoside in the 5′ wing segment and each nucleoside in the 3′ wing segment has a 2′-MOE modification. The internucleoside linkages throughout each gapmer are phosphorothioate (P═S) linkages. All cytosine residues throughout each gapmer are 5-methylcytosines.
# “Start site” indicates the 5′-most nucleoside to which the gapmer is targeted in the human gene sequence. “Stop site” indicates the 3′-most nucleoside to which the gapmer is targeted human gene sequence.
# Cultured Hep3B cells at a density of 20,000 cells per well were transfected using electroporation with 5,000 nM antisense oligonucleotide.
# Cultured Hep3B cells at a density of 20,000 cells per well were transfected using electroporation with 15,000 nM antisense oligonucleotide. The antisense oligonucleotides were tested in a series of experiments that had similar culture conditions as described below.
# Some of the oligonucleotides presented were complementary to SMAD7 mRNA sequences RefSeqNo. NM_001190821.1 (designated herein as SEQ ID NO: 3) or RefSeqNo. NM_001190822.1 (designated herein as SEQ ID NO: 4), and are presented in a separate table shown below.
# [1] = electroporation, 15,000 nM antisense oligonucleotide (Study 2), 5-10-5 MOE gapmers targeting SEQ ID NO: 1 and 2
# [2] = Study 2, electroporation with 15,000 nM antisense oligonucleotide, 5-10-5 MOE gapmers targeting SEQ ID NO: 1 and 2
# [3] = electroporation, 5,000 nM, approximately 24 hours, relative to untreated control cells, gapmers targeting SEQ ID NO: 1 and 2
# [4] = electroporation with 15,000 nM antisense oligonucleotide (Study 2), 5-10-5 MOE gapmers targeting SEQ ID NO: 1 and 2
# [5] = electroporation, 15,000 nM, approximately 24 hours, gapmers targeting SEQ ID NO: 3 and 4
# [6] = electroporation, 15,000 nM, approximately 24 hours, relative to untreated control cells, gapmers targeting SEQ ID NO: 1 and 2
Substance,% inhibition of SMAD7 mRNA expression [1] [%],% Inhibition [2] [%],other results
483664 (antisense eT*eG*e[5mC]*eT*e[5mC]*dA*dG*d[5mC]*dT*d[5mC]*dA*d[5mC]*dG*d[5mC]*dT*e[5mC]*eT*eG*eT*e[5mC]) [compound 483664],36,–,–
483665 (antisense eG*e[5mC]*eG*eA*eA*d[5mC]*dA*dT*dG*dA*d[5mC]*d[5mC]*dT*d[5mC]*d[5mC]*eG*e[5mC]*eA*e[5mC]*eA) [compound 483665],–,55,% inhibition of SMAD7 mRNA expression [3]: 10%
582468 (antisense eG*e[5mC]*e[5mC]*eA*eA*dT*dA*dT*d[5mC]*dA*dT*dA*dA*d[5mC]*d[5mC]*e[5mC]*eA*eA*eG*e[5mC]) [compound 582468],–,–,% inhibition of SMAD7 mRNA expression [2]: 4%; % inhibition of SMAD7 mRNA expression [4]: 0%
771342 (antisense eT*e[5mC]*eA*eG*eT*dT*dG*dG*dT*dT*dT*dG*dA*dG*dA*eA*eA*eA*eT*e[5mC]) [compound 771342],–,–,% inhibition of SMAD7 mRNA expression [5]: 35%
771343 (antisense eG*eA*e[5mC]*eA*eG*dT*d[5mC]*dA*dG*dT*dT*dG*dG*dT*dT*eT*eG*eA*eG*eA) [compound 771343],–,–,% inhibition of SMAD7 mRNA expression [5]: 0%
771344 (antisense eA*eT*e[5mC]*eT*eG*dG*dA*d[5mC]*dA*dG*dT*d[5mC]*dA*dG*dT*eT*eG*eG*eT*eT) [compound 771344],–,–,% inhibition of SMAD7 mRNA expression [5]: 17%
771346 (antisense e[5mC]*eG*eT*eG*eA*dT*dT*d[5mC]*dT*d[5mC]*d[5mC]*dG*dT*dA*dT*eT*eT*eA*e[5mC]*eT) [compound 771346],–,22,–
771347 (antisense eT*eG*eG*eG*e[5mC]*d[5mC]*dA*d[5mC]*dT*dG*dG*dT*dG*dT*dT*e[5mC]*eG*eA*e[5mC]*eG) [compound 771347],0,–,% Inhibition of SMAD7 mRNA [4]: 32%
771348 (antisense eG*eG*e[5mC]*e[5mC]*eA*d[5mC]*dG*dA*d[5mC]*dA*dG*dT*dA*dT*d[5mC]*eT*eG*eG*eG*e[5mC]) [compound 771348],42,–,–
771349 (antisense eA*e[5mC]*eT*e[5mC]*e[5mC]*dA*dA*dA*dG*dG*dT*dG*d[5mC]*dG*d[5mC]*eG*eG*e[5mC]*e[5mC]*eA) [compound 771349],26,–,–
771350 (antisense eT*eT*eT*eG*e[5mC]*d[5mC]*d[5mC]*d[5mC]*dA*dA*dA*dA*d[5mC]*dT*d[5mC]*e[5mC]*eA*eA*eA*eG) [compound 771350],–,28,% inhibition of SMAD7 mRNA expression [3]: 68%
771351 (antisense e[5mC]*eT*e[5mC]*eT*e[5mC]*dT*dT*dT*dG*d[5mC]*d[5mC]*d[5mC]*d[5mC]*dA*dA*eA*eA*e[5mC]*eT*e[5mC]) [compound 771351],–,11,–
771352 (antisense eT*e[5mC]*e[5mC]*eA*eA*d[5mC]*dT*d[5mC]*dT*d[5mC]*dT*dT*dT*dG*d[5mC]*e[5mC]*e[5mC]*e[5mC]*eA*eA) [compound 771352],–,–,% inhibition of SMAD7 mRNA expression [6]: 54%
771353 (antisense eT*eT*e[5mC]*e[5mC]*eA*dT*d[5mC]*d[5mC]*dA*dA*d[5mC]*dT*d[5mC]*dT*d[5mC]*eT*eT*eT*eG*e[5mC]) [compound 771353],–,0,–
771354 (antisense e[5mC]*eG*eG*e[5mC]*e[5mC]*dT*dT*d[5mC]*d[5mC]*dA*dT*d[5mC]*d[5mC]*dA*dA*e[5mC]*eT*e[5mC]*eT*e[5mC]) [compound 771354],–,39,–
771355 (antisense e[5mC]*eA*eG*eT*eT*d[5mC]*dG*dG*d[5mC]*d[5mC]*dT*dT*d[5mC]*d[5mC]*dA*eT*e[5mC]*e[5mC]*eA*eA) [compound 771355],0,–,% Inhibition of SMAD7 mRNA [4]: 13%
771356 (antisense eT*e[5mC]*e[5mC]*eA*eG*dT*dT*d[5mC]*dG*dG*d[5mC]*d[5mC]*dT*dT*d[5mC]*e[5mC]*eA*eT*e[5mC]*e[5mC]) [compound 771356],–,–,% inhibition of SMAD7 mRNA expression [5]: 40%
771357 (antisense eG*eA*eG*eT*e[5mC]*dA*dG*dG*d[5mC]*dT*d[5mC]*dA*dA*dT*dG*eA*eG*eA*e[5mC]*eT) [compound 771357],16,–,–

Substance,% inhibition of SMAD7 mRNA expression [1] [%],% Inhibition [2] [%],other results
771358 (antisense eA*eG*eT*eT*eA*dA*dT*d[5mC]*dA*dT*dT*dA*d[5mC]*dT*d[5mC]*eG*eA*eG*eT*e[5mC]) [compound 771358],–,36,% inhibition of SMAD7 mRNA expression [3]: 53%
771359 (antisense eG*eT*e[5mC]*eA*e[5mC]*d[5mC]*d[5mC]*dG*dT*d[5mC]*dT*dG*dG*dG*d[5mC]*eT*e[5mC]*e[5mC]*eG*eG) [compound 771359],–,15,–
771360 (antisense eA*e[5mC]*e[5mC]*eT*eT*dG*dT*d[5mC]*dA*d[5mC]*d[5mC]*d[5mC]*dG*dT*d[5mC]*eT*eG*eG*eG*e[5mC]) [compound 771360],–,–,% inhibition of SMAD7 mRNA expression [6]: 49%
771361 (antisense eA*e[5mC]*eA*eG*e[5mC]*dA*d[5mC]*d[5mC]*dT*dT*dG*dT*d[5mC]*dA*d[5mC]*e[5mC]*e[5mC]*eG*eT*e[5mC]) [compound 771361],–,27,–
771362 (antisense eG*eT*eA*eA*eG*dA*d[5mC]*dA*dG*dA*d[5mC]*d[5mC]*dA*d[5mC]*dA*eG*e[5mC]*eA*e[5mC]*e[5mC]) [compound 771362],–,15,–
771363 (antisense eT*e[5mC]*eA*eG*eG*d[5mC]*dT*dT*d[5mC]*dA*d[5mC]*dT*dG*d[5mC]*d[5mC]*e[5mC]*eA*eT*e[5mC]*eG) [compound 771363],12,–,% Inhibition of SMAD7 mRNA [4]: 35%
771364 (antisense eT*eA*eA*eT*eG*dG*dT*d[5mC]*dT*dG*d[5mC]*dT*d[5mC]*dA*dG*eG*e[5mC]*eT*eT*e[5mC]) [compound 771364],23,–,–
771365 (antisense eA*eT*eT*eA*eT*dT*dA*dA*dT*dG*dG*dT*d[5mC]*dT*dG*e[5mC]*eT*e[5mC]*eA*eG) [compound 771365],5,–,–
771366 (antisense eT*eG*e[5mC]*eT*eG*dA*dT*dT*dA*dT*dT*dA*dA*dT*dG*eG*eT*e[5mC]*eT*eG) [compound 771366],–,0,% inhibition of SMAD7 mRNA expression [3]: 49%
771367 (antisense e[5mC]*eT*eT*eG*eA*dT*dG*d[5mC]*dT*dG*dA*dT*dT*dA*dT*eT*eA*eA*eT*eG) [compound 771367],–,0,–
771368 (antisense e[5mC]*eG*eG*e[5mC]*e[5mC]*dT*dT*dG*dA*dT*dG*d[5mC]*dT*dG*dA*eT*eT*eA*eT*eT) [compound 771368],–,–,% inhibition of SMAD7 mRNA expression [6]: 27%
771369 (antisense e[5mC]*eA*eA*eA*eA*dG*dG*d[5mC]*dT*dG*dA*d[5mC]*dT*d[5mC]*dG*e[5mC]*eG*eG*e[5mC]*e[5mC]) [compound 771369],–,22,–
771370 (antisense e[5mC]*eA*eT*eT*e[5mC]*d[5mC]*dA*dA*dA*dA*dG*dG*d[5mC]*dT*dG*eA*e[5mC]*eT*e[5mC]*eG) [compound 771370],–,18,–
771372 (antisense eA*e[5mC]*eA*eA*eA*d[5mC]*d[5mC]*dA*d[5mC]*dA*d[5mC]*dA*dT*dT*d[5mC]*e[5mC]*eA*eA*eA*eA) [compound 771372],37,–,–
771373 (antisense eG*eA*eA*eA*eG*dA*d[5mC]*dA*dA*dA*d[5mC]*d[5mC]*dA*d[5mC]*dA*e[5mC]*eA*eT*eT*e[5mC]) [compound 771373],32,–,–
771374 (antisense eA*eG*e[5mC]*eA*eT*dG*dA*dA*dA*dG*dA*d[5mC]*dA*dA*dA*e[5mC]*e[5mC]*eA*e[5mC]*eA) [compound 771374],–,51,% inhibition of SMAD7 mRNA expression [3]: 44%
771375 (antisense e[5mC]*eT*eA*eA*eA*d[5mC]*dA*dG*d[5mC]*dA*dT*dG*dA*dA*dA*eG*eA*e[5mC]*eA*eA) [compound 771375],–,4,–
771376 (antisense eA*e[5mC]*eG*e[5mC]*eT*d[5mC]*dT*dA*dA*dA*d[5mC]*dA*dG*d[5mC]*dA*eT*eG*eA*eA*eA) [compound 771376],–,–,% inhibition of SMAD7 mRNA expression [6]: 17%
